# Values of other authors, collected in patent US20220362237A1, “PS[…] TREATMENT OF PAIN” (Mind Medicine, Inc., priority 2021, published 2022).
# Key:
# [1] = tested on: 5-HT2B/C
# [2] = 20-microgram dose
# [3] = grave and terminally ill patients, acute treatment (one or two doses); pain returned after several days
# [4] = tested on: serotonin 5-HT1 receptors
# [5] = tested on: D1-3 receptors
# [6] = target: 5-HT transporter (SERT) (Homo sapiens, UniProt P31645)
# [7] = target: 5-HT2A receptor (Homo sapiens, UniProt P28223)
# [8] = tested on: 5HT2A receptors; details: tumor necrosis factor-alpha-induced inflammation
# [9] = target: D2 receptors (Homo sapiens, UniProt P14416)
# D2 receptors, sequence (P14416 whole entry): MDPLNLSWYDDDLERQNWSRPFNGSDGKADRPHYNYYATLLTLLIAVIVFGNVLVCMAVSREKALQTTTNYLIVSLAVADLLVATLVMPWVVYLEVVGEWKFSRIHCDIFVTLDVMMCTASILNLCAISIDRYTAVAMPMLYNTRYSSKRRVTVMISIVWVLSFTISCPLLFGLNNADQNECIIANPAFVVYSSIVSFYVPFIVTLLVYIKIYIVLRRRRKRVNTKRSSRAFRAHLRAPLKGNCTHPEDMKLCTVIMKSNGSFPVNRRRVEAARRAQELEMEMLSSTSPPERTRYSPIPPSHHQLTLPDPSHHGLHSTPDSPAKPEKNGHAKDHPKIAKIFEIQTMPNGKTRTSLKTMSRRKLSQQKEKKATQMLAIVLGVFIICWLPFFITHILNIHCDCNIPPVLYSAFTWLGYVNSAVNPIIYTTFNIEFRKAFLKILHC
# 5-HT transporter (SERT), sequence (P31645 whole entry, species assumed): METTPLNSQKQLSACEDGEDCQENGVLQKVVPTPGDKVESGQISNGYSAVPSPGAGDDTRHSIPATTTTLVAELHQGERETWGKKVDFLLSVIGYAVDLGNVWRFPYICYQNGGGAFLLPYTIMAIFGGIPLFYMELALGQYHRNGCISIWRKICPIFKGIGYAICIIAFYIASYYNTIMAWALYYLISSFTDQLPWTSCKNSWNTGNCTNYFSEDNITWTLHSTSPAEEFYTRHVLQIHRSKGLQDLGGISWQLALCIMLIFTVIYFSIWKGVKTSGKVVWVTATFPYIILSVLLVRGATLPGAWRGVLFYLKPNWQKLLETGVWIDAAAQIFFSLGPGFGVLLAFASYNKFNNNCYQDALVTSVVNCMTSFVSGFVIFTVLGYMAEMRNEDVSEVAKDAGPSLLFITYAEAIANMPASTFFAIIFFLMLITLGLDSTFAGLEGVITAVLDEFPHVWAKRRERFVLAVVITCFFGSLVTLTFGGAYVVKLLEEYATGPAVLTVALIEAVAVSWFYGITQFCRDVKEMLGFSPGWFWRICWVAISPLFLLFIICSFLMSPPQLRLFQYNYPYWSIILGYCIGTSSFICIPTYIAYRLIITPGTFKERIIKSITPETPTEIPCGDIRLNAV
# 5-HT2A receptor, sequence (P28223 whole entry): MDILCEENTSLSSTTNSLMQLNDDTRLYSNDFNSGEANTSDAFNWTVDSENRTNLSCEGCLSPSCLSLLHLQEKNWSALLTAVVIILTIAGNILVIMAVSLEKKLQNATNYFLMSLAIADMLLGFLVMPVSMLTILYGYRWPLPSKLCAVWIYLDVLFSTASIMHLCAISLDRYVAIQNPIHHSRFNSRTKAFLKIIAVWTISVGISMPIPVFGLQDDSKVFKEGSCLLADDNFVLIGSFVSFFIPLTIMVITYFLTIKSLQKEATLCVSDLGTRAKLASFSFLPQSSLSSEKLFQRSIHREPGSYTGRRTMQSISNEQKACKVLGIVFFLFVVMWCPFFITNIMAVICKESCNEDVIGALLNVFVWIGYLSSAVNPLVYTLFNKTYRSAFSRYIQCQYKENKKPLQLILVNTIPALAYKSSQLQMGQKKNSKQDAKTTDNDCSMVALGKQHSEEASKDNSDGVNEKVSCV
compound,measurement,setting,value
"CCN(CC)C(=O)[C@@H]1C=C2c3cccc4[nH]cc(c34)C[C@H]2N(C)C1 [LSD, lysergic acid diethylamide]",stimulation of 5-HT2B/C receptors,[1],stimulates
same,subjective levels of experienced pain and unpleasantness,[2],decreased
same,time that participants could tolerate cold water exposure,[2],significantly increased
same,pain relief compared with the narcotics meperidine and dihydromorphinone,[3],greater and longer lasting pain relief
same,agonist potency at serotonin 5-HT1 receptors,[4],potent agonists
same,stimulation of D1-3 receptors,[5],stimulates
same,interaction with / inhibition of the 5-HT transporter (SERT),[6],does not interact
same,stimulation of the 5-HT2A receptor,[7],potently stimulates
"COc1cc(CC(C)N)c(OC)cc1I (stereo not shown) [R-DOI, 2,5-dimethoxy-4-iodoamphetamine]",anti-inflammatory effect,[8],potent anti-inflammatory effect
COc1cc(CCN)cc(OC)c1OC [mescaline],affinity for D2 receptors,[9],no affinity
same,agonist potency at serotonin 5-HT1 receptors,[4],low potency
CN(C)CCc1c[nH]c2cccc(O)c12 [psilocin],agonist potency at serotonin 5-HT1 receptors,[4],potent agonists
same,interaction with / inhibition of the 5-HT transporter (SERT),[6],inhibits
